# Experimental data taken from ChEMBL document CHEMBL5528029, “Design, synthesis, and biological evaluation of novel discoidin domain receptor inhibitors for the treatment of lung adenocarcinoma and pulmonary fibrosis” (Eur J Med Chem, 2024).
# Activity calls are given as the source filed them. The calls are words filed in the database; no cut-off is given here.
# Experiments:
# [1] = target: T1, Discoidin domain-containing receptor 2 (Homo sapiens) (UniProt Q16832); experiment: Inhibition of DDR2 (unknown origin) assessed as remaining activity at 1 uM using fluorescein-poly GAT as substrate in presence of ATP by TR-FRET assay relative to control
# T1 sequence (whole entry): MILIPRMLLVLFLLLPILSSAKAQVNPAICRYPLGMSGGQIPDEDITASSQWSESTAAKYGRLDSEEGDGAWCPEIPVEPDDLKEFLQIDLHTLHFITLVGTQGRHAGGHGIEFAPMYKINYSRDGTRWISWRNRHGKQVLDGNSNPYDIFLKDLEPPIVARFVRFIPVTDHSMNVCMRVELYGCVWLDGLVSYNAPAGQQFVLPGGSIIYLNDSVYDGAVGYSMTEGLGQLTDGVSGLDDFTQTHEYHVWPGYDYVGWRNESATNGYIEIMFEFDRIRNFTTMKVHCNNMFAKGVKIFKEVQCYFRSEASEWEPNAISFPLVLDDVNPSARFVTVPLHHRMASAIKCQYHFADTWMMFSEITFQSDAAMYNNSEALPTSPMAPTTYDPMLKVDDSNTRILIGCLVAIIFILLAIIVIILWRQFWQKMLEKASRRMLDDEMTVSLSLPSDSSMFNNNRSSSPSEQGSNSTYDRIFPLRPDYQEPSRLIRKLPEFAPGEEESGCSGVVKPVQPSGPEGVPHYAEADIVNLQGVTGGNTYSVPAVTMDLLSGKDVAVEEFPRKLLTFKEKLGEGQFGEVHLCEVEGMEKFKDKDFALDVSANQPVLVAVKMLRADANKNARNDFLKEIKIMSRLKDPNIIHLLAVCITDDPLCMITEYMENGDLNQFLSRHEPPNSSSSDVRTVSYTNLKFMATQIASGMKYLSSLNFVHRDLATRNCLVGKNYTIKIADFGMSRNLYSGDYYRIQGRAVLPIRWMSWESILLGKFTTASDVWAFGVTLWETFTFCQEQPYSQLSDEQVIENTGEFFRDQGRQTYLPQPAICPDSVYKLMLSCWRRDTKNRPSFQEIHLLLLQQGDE
# [2] = target: High affinity nerve growth factor receptor (Homo sapiens) (UniProt P04629); experiment: Inhibition of TRK-A (unknown origin) assessed as remaining activity at 1 uM using fluorescein-poly GAT as substrate in presence of ATP by TR-FRET assay relative to control
# High affinity nerve growth factor receptor (Homo sapiens), sequence (P04629 33-796 limits assumed): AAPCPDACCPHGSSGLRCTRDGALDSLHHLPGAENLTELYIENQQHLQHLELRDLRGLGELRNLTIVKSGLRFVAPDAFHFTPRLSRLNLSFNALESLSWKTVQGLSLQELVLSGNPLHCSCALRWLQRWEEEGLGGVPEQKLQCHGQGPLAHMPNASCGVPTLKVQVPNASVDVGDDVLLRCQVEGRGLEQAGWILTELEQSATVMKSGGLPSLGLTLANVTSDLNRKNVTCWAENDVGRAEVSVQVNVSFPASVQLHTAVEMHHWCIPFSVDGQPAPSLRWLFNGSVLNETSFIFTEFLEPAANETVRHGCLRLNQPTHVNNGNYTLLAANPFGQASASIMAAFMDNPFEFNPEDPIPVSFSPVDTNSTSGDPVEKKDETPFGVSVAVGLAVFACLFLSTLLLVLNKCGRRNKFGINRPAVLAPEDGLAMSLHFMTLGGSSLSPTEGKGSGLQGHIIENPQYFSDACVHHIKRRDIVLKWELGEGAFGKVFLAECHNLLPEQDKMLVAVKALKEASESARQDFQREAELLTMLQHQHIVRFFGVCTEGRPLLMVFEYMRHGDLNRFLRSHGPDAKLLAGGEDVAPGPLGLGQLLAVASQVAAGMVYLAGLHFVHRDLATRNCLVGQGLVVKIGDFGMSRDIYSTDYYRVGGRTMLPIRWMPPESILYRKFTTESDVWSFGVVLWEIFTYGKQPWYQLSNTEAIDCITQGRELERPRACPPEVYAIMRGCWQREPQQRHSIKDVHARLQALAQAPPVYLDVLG
# [3] = target: BDNF/NT-3 growth factors receptor (Homo sapiens) (UniProt Q16620); experiment: Inhibition of TRK-B (unknown origin) assessed as remaining activity at 1 uM using fluorescein-poly GAT as substrate in presence of ATP by TR-FRET assay relative to control
# BDNF/NT-3 growth factors receptor (Homo sapiens), sequence (Q16620 32-822 limits assumed): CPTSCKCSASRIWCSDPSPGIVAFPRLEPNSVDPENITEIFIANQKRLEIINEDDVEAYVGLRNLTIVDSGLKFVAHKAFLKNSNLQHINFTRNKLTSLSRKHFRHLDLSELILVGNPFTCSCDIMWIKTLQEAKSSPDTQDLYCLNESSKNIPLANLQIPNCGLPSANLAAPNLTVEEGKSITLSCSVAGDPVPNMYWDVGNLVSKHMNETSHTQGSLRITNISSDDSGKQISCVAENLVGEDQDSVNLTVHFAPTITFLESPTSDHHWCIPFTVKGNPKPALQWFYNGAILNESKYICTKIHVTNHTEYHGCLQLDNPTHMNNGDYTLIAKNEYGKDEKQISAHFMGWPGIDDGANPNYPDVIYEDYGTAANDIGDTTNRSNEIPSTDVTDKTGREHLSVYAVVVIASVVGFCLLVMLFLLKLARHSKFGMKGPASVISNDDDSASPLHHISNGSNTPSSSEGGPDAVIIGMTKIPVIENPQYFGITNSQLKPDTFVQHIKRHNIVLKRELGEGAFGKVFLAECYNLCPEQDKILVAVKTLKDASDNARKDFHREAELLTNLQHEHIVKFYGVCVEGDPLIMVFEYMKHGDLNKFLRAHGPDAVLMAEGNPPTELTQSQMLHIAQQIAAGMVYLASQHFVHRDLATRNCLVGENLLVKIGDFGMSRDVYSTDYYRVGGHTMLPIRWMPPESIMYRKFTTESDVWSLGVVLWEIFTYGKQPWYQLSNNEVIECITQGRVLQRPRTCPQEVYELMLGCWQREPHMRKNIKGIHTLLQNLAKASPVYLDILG
# [4] = target: NT-3 growth factor receptor (Homo sapiens) (UniProt Q16288); experiment: Inhibition of TRK-C (unknown origin) assessed as remaining activity at 1 uM using fluorescein-poly GAT as substrate in presence of ATP by TR-FRET assay relative to control
# NT-3 growth factor receptor (Homo sapiens), sequence (Q16288 32-839 limits assumed): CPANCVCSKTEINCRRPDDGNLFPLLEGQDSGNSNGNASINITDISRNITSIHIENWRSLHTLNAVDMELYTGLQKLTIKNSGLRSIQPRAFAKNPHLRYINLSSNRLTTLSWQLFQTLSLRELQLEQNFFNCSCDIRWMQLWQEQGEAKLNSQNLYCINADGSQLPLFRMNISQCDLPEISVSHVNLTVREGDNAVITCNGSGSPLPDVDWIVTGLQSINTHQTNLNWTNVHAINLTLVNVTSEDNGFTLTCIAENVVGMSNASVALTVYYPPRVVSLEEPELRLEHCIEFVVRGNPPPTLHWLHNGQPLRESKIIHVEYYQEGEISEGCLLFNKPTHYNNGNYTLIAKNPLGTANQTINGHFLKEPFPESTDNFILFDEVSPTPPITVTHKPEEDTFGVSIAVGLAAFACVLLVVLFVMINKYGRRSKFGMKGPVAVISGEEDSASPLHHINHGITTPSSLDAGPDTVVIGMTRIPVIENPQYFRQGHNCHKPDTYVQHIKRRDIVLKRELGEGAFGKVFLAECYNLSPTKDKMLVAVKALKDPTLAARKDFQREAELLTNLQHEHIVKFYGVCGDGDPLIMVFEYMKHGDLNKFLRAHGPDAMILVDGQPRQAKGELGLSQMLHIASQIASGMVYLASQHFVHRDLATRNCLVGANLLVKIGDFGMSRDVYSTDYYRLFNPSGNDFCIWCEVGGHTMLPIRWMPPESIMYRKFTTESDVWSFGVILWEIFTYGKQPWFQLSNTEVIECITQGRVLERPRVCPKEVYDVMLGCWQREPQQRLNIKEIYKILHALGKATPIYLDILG
# [5] = target: T2, Discoidin domain-containing receptor 2 (Homo sapiens, UniProt Q16832); experiment: Inhibition of DDR2 (unknown origin)
# T2 sequence (Q16832 whole entry): T1 sequence (whole entry)
# A549 [6] = experiment: Antiproliferative activity against human A549 cells incubated for 72 hrs by MTT assay; settings: A549, 72 h
# [7] = Antiproliferative activity against human SPCA1 cells incubated for 72 hrs by MTT assay; settings: SPCA1, 72 h
# NCI-H1975 = experiment: Antiproliferative activity against human NCI-H1975 cells incubated for 72 hrs by MTT assay; settings: NCI-H1975, 72 h
# A549 [8] = experiment: Effect on DDR1 level in human A549 cells at 50 to 200 nM by Western blotting analysis; format: functional, cell-based; settings: dose 50-200 nM
# A549 [9] = experiment: Effect on ERK1/2 level in human A549 cells at 50 to 200 nM by Western blotting analysis; format: functional, cell-based; settings: dose 50-200 nM
# A549 [10] = experiment: Effect on AKT1 level in human A549 cells at 50 to 200 nM by Western blotting analysis; format: functional, cell-based; settings: dose 50-200 nM
# A549 [11] = experiment: Antiproliferative activity against human A549 cells transfected with DDR1 siRNA incubated for 72 hrs by MTT assay; format: functional, cell-based
# [12] = target: Mitogen-activated protein kinase; ERK1/ERK2 (Homo sapiens) (UniProt P27361+P28482); experiment: Inhibition of ERK1/2 phosphorylation in human A549 cells at 50 to 200 nM by Western blotting analysis; format: cell-based; settings: dose 50-200 nM
# Mitogen-activated protein kinase; ERK1/ERK2 (Homo sapiens), sequence (P27361 whole entry, looked up): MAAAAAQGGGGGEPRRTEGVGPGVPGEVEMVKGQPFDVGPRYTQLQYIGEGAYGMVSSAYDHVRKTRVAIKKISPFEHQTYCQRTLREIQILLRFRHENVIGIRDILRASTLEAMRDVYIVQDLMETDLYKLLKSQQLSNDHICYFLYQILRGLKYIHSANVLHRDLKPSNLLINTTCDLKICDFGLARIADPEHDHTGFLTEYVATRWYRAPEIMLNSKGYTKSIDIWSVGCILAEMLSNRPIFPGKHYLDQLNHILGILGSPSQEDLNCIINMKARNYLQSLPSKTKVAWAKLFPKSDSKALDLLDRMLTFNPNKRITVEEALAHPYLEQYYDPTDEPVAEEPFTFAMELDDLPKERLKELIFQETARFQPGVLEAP
# Mitogen-activated protein kinase; ERK1/ERK2 (Homo sapiens), sequence (P28482 whole entry, looked up): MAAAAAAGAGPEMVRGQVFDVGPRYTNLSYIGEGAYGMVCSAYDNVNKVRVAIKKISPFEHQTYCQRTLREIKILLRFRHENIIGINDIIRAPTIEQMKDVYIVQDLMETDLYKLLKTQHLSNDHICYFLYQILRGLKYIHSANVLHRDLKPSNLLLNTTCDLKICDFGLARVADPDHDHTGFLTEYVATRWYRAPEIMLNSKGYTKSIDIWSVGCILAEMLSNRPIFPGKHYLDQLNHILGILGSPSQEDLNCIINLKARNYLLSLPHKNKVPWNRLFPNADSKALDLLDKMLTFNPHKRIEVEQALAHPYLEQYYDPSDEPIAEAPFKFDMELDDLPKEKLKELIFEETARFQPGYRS
# [13] = target: RAC-alpha serine/threonine-protein kinase (Homo sapiens) (UniProt P31749); experiment: Inhibition of Akt1 phosphorylation in human A549 cells at 50 to 200 nM by Western blotting analysis; format: cell-based; settings: dose 50-200 nM
# RAC-alpha serine/threonine-protein kinase (Homo sapiens), sequence (P31749 whole entry): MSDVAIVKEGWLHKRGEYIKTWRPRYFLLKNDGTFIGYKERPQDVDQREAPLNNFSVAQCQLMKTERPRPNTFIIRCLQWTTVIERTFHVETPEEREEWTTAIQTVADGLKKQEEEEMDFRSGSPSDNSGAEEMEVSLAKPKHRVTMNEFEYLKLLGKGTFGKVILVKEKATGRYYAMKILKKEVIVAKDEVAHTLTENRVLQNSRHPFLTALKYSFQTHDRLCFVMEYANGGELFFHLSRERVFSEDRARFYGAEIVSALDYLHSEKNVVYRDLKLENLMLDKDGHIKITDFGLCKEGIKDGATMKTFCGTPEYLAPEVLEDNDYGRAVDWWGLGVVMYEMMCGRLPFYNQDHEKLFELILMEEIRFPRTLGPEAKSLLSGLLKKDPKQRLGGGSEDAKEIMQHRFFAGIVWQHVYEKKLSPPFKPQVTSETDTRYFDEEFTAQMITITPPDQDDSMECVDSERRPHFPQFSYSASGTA
# A549 [14] = experiment: Inhibition of epithelial-to-mesenchymal transition in human A549 cells assessed as upregulation of E-cadherin protein expression at 50 to 200 nM by Western blotting analysis; format: functional, cell-based; settings: dose 50-200 nM
# A549 [15] = experiment: Inhibition of epithelial-to-mesenchymal transition in human A549 cells assessed as downregulation of N-cadherin protein expression at 50 to 200 nM by Western blotting analysis; format: functional, cell-based; settings: dose 50-200 nM
# A549 [16] = experiment: Inhibition of cell migration in human A549 cells at 50 to 200 nM by transwell assay; format: functional, cell-based; settings: dose 50-200 nM
# A549 [17] = experiment: Inhibition of epithelial-to-mesenchymal transition in human A549 cells assessed as downregulation of N-cadherin protein expression at 200 nM by laser confocal microscopy analysis; format: functional, cell-based
# A549 [18] = experiment: Inhibition of epithelial-to-mesenchymal transition in human A549 cells assessed as upregulation of E-cadherin protein expression at 200 nM by laser confocal microscopy analysis; format: functional, cell-based
# A549 [19] = experiment: Antitumor activity against human A549 cells xenografted in SPF BALB/c nude mouse assessed as tumor growth inhibition at 30 mg/kg, ip administered for 14 days; format: functional, organism-based; settings: time 14.0 day
# [20] = Toxicity in SPF BALB/c nude mouse xenografted with human A549 cells assessed as weight loss at 30 mg/kg, ip administered for 14 days; format: organism-based; settings: in vivo, 336 h, time 14 day
# A549 [21] = experiment: Antitumor activity against human A549 cells xenografted in SPF BALB/c nude mouse assessed as reduction in Ki-67 expression at 30 mg/kg, ip administered for 14 days by immunohistochemistry analysis; format: functional, organism-based; settings: time 14.0 day
# A549 [22] = experiment: Antitumor activity against human A549 cells xenografted in SPF BALB/c nude mouse assessed as reduction in cell growth ratio at 30 mg/kg, ip administered for 14 days by TUNEL staining based immunohistochemistry analysis; format: functional, organism-based; settings: time 14.0 day
# Mus musculus [23] = experiment: In vivo inhibition of DDR1 phosphorylation in SPF BALB/c nude mouse xenografted with human A549 cells at 30 mg/kg, ip administered for 14 days; format: functional, organism-based; settings: time 14.0 day
# NIH3T3 [24] = experiment: Inhibition of TGF-beta1 induced mouse NIH3T3 cells activation assessed as reduction in collagen-I accumulation at 3 to 6 uM preincubated with TGF-beta1 followed by compound addition by immunofluorescence staining based assay; format: functional, cell-based; settings: dose 3-6 µM
# NIH3T3 [25] = experiment: Inhibition of TGF-beta1 induced mouse NIH3T3 cells activation assessed as reduction in alpha-SMA level at 3 to 6 uM preincubated with TGF-beta1 followed by compound addition by immunofluorescence staining based assay; format: functional, cell-based; settings: dose 3-6 µM
# Mus musculus [26] = experiment: Antifibrotic activity against bleomycin-induced C57BL/6 mouse model of pulmonary fibrosis assessed as increase in animal survival at 15 mg/kg, ip administered once daily for 21 days; format: functional, organism-based; settings: time 21.0 day
# Mus musculus [27] = experiment: Antifibrotic activity against bleomycin-induced C57BL/6 mouse model of pulmonary fibrosis assessed as increase in animal survival at 30 mg/kg, ip administered once daily for 21 days; format: functional, organism-based; settings: time 21.0 day
# Mus musculus [28] = experiment: Antifibrotic activity against bleomycin-induced C57BL/6 mouse model of pulmonary fibrosis assessed as reduction in total cell count in BALF at 30 mg/kg, ip administered once daily for 21 days; format: functional, organism-based; settings: time 21.0 day
# Mus musculus [29] = experiment: Antifibrotic activity against bleomycin-induced C57BL/6 mouse model of pulmonary fibrosis assessed as reduction in neutrophil count in BALF at 30 mg/kg, ip administered once daily for 21 days; format: functional, organism-based; settings: time 21.0 day
# Mus musculus [30] = experiment: Antifibrotic activity against bleomycin-induced C57BL/6 mouse model of pulmonary fibrosis assessed as reduction in inflammatory cytokines levels in BALF at 30 mg/kg, ip administered once daily for 21 days; format: functional, organism-based; settings: time 21.0 day
# Mus musculus [31] = experiment: Antifibrotic activity against bleomycin-induced C57BL/6 mouse model of pulmonary fibrosis assessed as reduction in collagen hyperplasia at 30 mg/kg, ip administered once daily for 21 days; format: functional, organism-based; settings: time 21.0 day
# Mus musculus [32] = experiment: Antifibrotic activity against bleomycin-induced C57BL/6 mouse model of pulmonary fibrosis assessed as reduction in morphological changes at 30 mg/kg, ip administered once daily for 21 days by H and E staining based assay; format: functional, organism-based; settings: time 21.0 day
# Mus musculus [33] = experiment: Antifibrotic activity against bleomycin-induced C57BL/6 mouse model of pulmonary fibrosis assessed as reduction in alpha-SMA level in pulmonary tissue at 30 mg/kg, ip administered once daily for 21 days by immunofluorescence staining based assay; format: functional, organism-based; settings: time 21.0 day
# Mus musculus [34] = experiment: Antifibrotic activity against bleomycin-induced C57BL/6 mouse model of pulmonary fibrosis assessed as reduction in collagen-I level in pulmonary tissue at 30 mg/kg, ip administered once daily for 21 days by immunofluorescence staining based assay; format: functional, organism-based; settings: time 21.0 day
# NIH3T3 [35] = experiment: Inhibition of TGF-beta1 induced mouse NIH3T3 cells activation assessed as reduction in collagen-I accumulation at 5 uM preincubated with TGF-beta1 followed by compound addition by immunofluorescence staining based assay; format: functional, cell-based
# NIH3T3 [36] = experiment: Inhibition of TGF-beta1 induced mouse NIH3T3 cells activation assessed as reduction in alpha-SMA level at 5 uM preincubated with TGF-beta1 followed by compound addition by immunofluorescence staining based assay; format: functional, cell-based
SMILES,Activity [1],Activity [2],Activity [3],Activity [4],IC50 [5],IC50 (A549 [6]),IC50 [7],IC50 (NCI-H1975),Activity (A549 [8]),Activity (A549 [9]),Activity (A549 [10]),inhibition (A549 [14]),inhibition (A549 [15]),Activity (A549 [19]),Activity (Mus musculus [27]),other results
CN1CCN(C(=O)Cn2cc(CNC(=O)Nc3ccc(F)cc3F)c3cc(F)ccc32)CC1,13.7%,84.9%,106%,78.6%,126 nM,1840 nM,3510 nM,1870 nM,inactive,inactive,inactive,Active,Active,Active,Active,Activity (A549 [11]): inactive; inhibition [12]: Active; inhibition [13]: Active; inhibition (A549 [16]): Active; inhibition (A549 [17]): Active; inhibition (A549 [18]): Active; Activity [20]: Non-Toxic; Activity (A549 [21]): Active; Activity (A549 [22]): Active; inhibition (Mus musculus [23]): Active; inhibition (NIH3T3 [24]): Active; inhibition (NIH3T3 [25]): Active; Activity (Mus musculus [26]): Active; Activity (Mus musculus [28]): Active; Activity (Mus musculus [29]): Active; Activity (Mus musculus [30]): Active; Activity (Mus musculus [31]): Active; Activity (Mus musculus [32]): Active; Activity (Mus musculus [33]): Active; Activity (Mus musculus [34]): Active
Cc1nc(Nc2ncc(C(=O)Nc3c(C)cccc3Cl)s2)cc(N2CCN(CCO)CC2)n1 [DASATINIB ANHYDROUS],,,,,,2550 nM,2460 nM,1260 nM,inactive,inactive,inactive,Active,Active,Active,Active,inhibition (NIH3T3 [35]): Active; inhibition (NIH3T3 [36]): Active
O=C(NCc1cn(CC(=O)N2CCCCC2)c2ccc(F)cc12)Nc1ccc(F)cc1F,41.3%,88.2%,106%,83.5%,1190 nM,1670 nM,1730 nM,3860 nM,,,,,,,,
O=C(NCc1cn(CC(=O)N2CCOCC2)c2ccc(F)cc12)Nc1ccc(F)cc1F,53.5%,93.8%,72.8%,82.7%,450 nM,3720 nM,2820 nM,1980 nM,,,,,,,,
O=C(NCc1cn(CC(=O)N2CCCC2)c2ccc(F)cc12)Nc1ccc(F)cc1F,32.5%,95.7%,69.5%,75.2%,1670 nM,11200 nM,10500 nM,5340 nM,,,,,,,,
COc1ccc2c(c1)c(CNC(=O)Nc1ccc(F)cc1F)cn2CC(=O)N1CCCC1,50.8%,74%,104%,76.2%,1330 nM,6960 nM,7350 nM,3720 nM,,,,,,,,
